From patent publication US20070027150A1 (priority 2005, published 2007)

Biological target: His-tagged N-terminal ATP binding domain (amino acid residues 9-236) of HSP90α (Homo sapiens, UniProt P07900)
Test: HSP90 inhibitor binding potency: TRF competition binding assay
Settings: Table I; read-out: Hsp90 IC50 Range
How it was run: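 Competition against biotinylated radicicol for binding to the His-tagged 9-236 ATP domain of HSP90α: 2 h, room temperature, HEPES/MgCl2/KCl/BSA buffer. Streptavidin capture, then europium-labeled anti-His antibody and enhancement solution; europium counts give IC50.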

Row | Compound | IC50 [nM]
1 | Cc1nc(N)nc2c1C(=O)CC(c1ccccc1-c1ccccc1Oc1ccccc1)C2 (stereo not drawn) [Compound 113, 2-amino-4-methyl-7-(2′-phenoxy-1,1′-biphenyl-2-yl)-7,8-dihydroquinazolin-5(6H)-one] | < 1000
2 | Cc1nc(N)nc2c1C(=O)CC(c1ccccc1Nc1ccccc1)C2 (stereo not drawn) [Compound 164, 2-amino-4-methyl-7-(2-phenylamino-phenyl)-7,8-dihydro-6H-quinazolin-5-one] | < 1000
3 | COc1cccc(-c2ccccc2CO)c1C1CC(=O)c2c(C)nc(N)nc2C1 (stereo not drawn) [Compound 106, 2-amino-7-[2′-(hydroxymethyl)-3-methoxy-1,1′-biphenyl-2-yl]-4-methyl-7,8-dihydroquinazolin-5(6H)-one] | < 1000
4 | Cc1nc(N)nc2c1C(=O)CC(c1ccccc1-c1cccc(F)c1F)C2 (stereo not drawn) [Compound 83, 2-amino-7-(2′,3′-difluoro-1,1′-biphenyl-2-yl)-4-methyl-7,8-dihydroquinazolin-5(6H)-one] | < 1000
5 | Cc1nc(N)nc2c1C(=O)CC(c1c(O)cccc1-c1cccnc1F)C2 (stereo not drawn) [Compound 170, 2-amino-7-[2-(2-fluoro-pyridin-3-yl)-6-hydroxy-phenyl]-4-methyl-7,8-dihydro-6H-quinazolin-5-one] | < 1000

Same assay, conditions: Table II; read-out: Hsp90 IC50 Range

Row | Compound | IC50 [nM]
6 | Cc1nc(N)nc2c1C(=O)CC(c1ccc(F)cc1-c1nccnc1Cl)C2 (stereo not drawn) [Compound 228, 2-amino-7-[2-(3-chloro-pyrazin-2-yl)-4-fluoro-phenyl]-4-methyl-7,8-dihydro-6H-quinazolin-5-one] | 1000 to 10000
7 | COc1ccnc(-c2cc(F)ccc2C2CC(=O)c3c(C)nc(N)nc3C2)n1 (stereo not drawn) [Compound 257, 2-amino-7-[4-fluoro-2-(4-methoxy-pyrimidin-2-yl)-phenyl]-4-methyl-7,8-dihydro-6H-quinazolin-5-one] | < 1000
8 | COc1ccc(F)c(-c2cc(F)ccc2[C@H]2CC(=O)c3c(C)nc(N)nc3C2)n1 [Compound 314, (R)-2-amino-7-[4-fluoro-2-(3-fluoro-6-methoxy-pyridin-2-yl)-phenyl]-4-methyl-7,8-dihydro-6H-quinazolin-5-one] | 1000 to 10000
9 | COc1cccc(-c2scnc2C2CC(=O)c3c(C)nc(N)nc3C2)n1 (stereo not drawn) [Compound 291, 2-amino-7-[5-(6-methoxy-pyridin-2-yl)-thiazol-4-yl]-4-methyl-7,8-dihydro-6H-quinazolin-5-one] | < 1000
10 | Cc1nc(N)nc2c1C(=O)CC(c1ncsc1-c1cccc(F)n1)C2 (stereo not drawn) [Compound 294, 2-amino-7-[5-(6-fluoro-pyridin-2-yl)-thiazol-4-yl]-4-methyl-7,8-dihydro-6H-quinazolin-5-one] | < 1000
11 | COc1ncccc1-c1ccc(F)cc1C1CC(=O)c2c(C)nc(N)nc2C1 (stereo not drawn) [Compound 285, 2-amino-7-[5-fluoro-2-(2-methoxy-pyridin-3-yl)-phenyl]-4-methyl-7,8-dihydro-6H-quinazolin-5-one] | < 1000
12 | Cc1nc(N)nc2c1C(=O)CC(c1ccc(F)cc1OC1CCCC1)C2 (stereo not drawn) [Compound 255, 2-amino-7-(2-cyclopentyloxy-4-fluoro-phenyl)-4-methyl-7,8-dihydro-6H-quinazolin-5-one] | < 1000
